Experiments:
Experiment in all cases: drug sensitivity score (DSS) from 5-dose viability curve (DSS (area-based score, 0 = no response)); higher = more sensitive (stronger viability inhibition); extreme values may be limits of the assay
[1] = test system: MDCK p60AmotL2-inducible + doxycycline (p60AmotL2 expressing); details: doxycycline: 10 ng/mL; 72 h
Summary of the method: (§1)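 Parental MDCK cells and MDCK cells with doxycycline-inducible p60AmotL2, both given doxycycline at 10 ng/mL in the medium before plating, were dispensed at 2000 cells/well onto pre-spotted 384-well plates. The plates held an oncology library of 528 drugs at five doses (1-10,000 nM) and were incubated 72 h at 37 °C. Viability was read as CellTiter-Glo luminescence and scaled per plate between vehicle and positive controls. Drug sensitivity scores came from dose-response curve fits in the Breeze pipeline.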

[2] = test system: MDCK wild-type + doxycycline; details: doxycycline: 10 ng/mL; 72 h
Summary of the method: as §1

[3] = test system: MDCK wild-type - doxycycline; details: doxycycline: none; 72 h
Summary of the method: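 Drug sensitivity scores came from Breeze pipeline dose-response fits of CellTiter-Glo luminescence, scaled per plate between vehicle and positive controls. The assay used parental MDCK cells without doxycycline at 2000 cells/well, exposed for 72 h to 528 oncology drugs at five doses (1-10,000 nM).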

| SMILES | drug sensitivity score [1] | drug sensitivity score [2] | drug sensitivity score [3] |
| --- | --- | --- | --- |
| CC[C@H](NC(=O)[C@H](C)NC)C(=O)N1C[C@@H](O)C[C@H]1Cc1c(-c2[nH]c3cc(F)ccc3c2C[C@@H]2C[C@H](O)CN2C(=O)[C@H](CC)NC(=O)[C@H](C)NC)[nH]c2cc(F)ccc12 [Birinapant] | 0 | 0 | 0 |
| C[C@@H]1CN(Cc2ccc(F)cc2)[C@@H](C)CN1C(=O)c1cc2c(C(=O)C(=O)N(C)C)cn(C)c2cc1Cl [Talmapimod] | 0 | 0 | 0 |
| CN(c1ncccc1CNc1nc(Nc2ccc3c(c2)CC(=O)N3)ncc1C(F)(F)F)S(C)(=O)=O | 6 | 5.8 | 4.4 |
| C#Cc1cccc(Nc2ncnc3cc(OCCOC)c(OCCOC)cc23)c1 [Erlotinib] | 15.4 | 4.5 | 3.4 |
| CO[C@H]1C(=O)[C@]2(C)[C@@H](OC)C[C@H]3OC[C@@]3(OC(C)=O)[C@H]2[C@H](OC(=O)c2ccccc2)[C@]2(O)C[C@H](OC(=O)[C@H](O)[C@@H](NC(=O)OC(C)(C)C)c3ccccc3)C(C)=C1C2(C)C [Cabazitaxel] | 38 | 37.7 | 33.8 |
| O=C(Nc1cccc(NC(=O)c2cccc(O)c2O)c1)c1cccc(O)c1O [MST-312] | 9.1 | 5.9 | 7.2 |
| Nc1ccn([C@@H]2O[C@H](CO)[C@@H](O)[C@@H]2O)c(=O)n1 [Cytarabine] | 4 | 2.3 | 1.8 |
| Cc1ccc(-n2nc(C(C)(C)C)cc2NC(=O)Nc2ccc(OCCN3CCOCC3)c3ccccc23)cc1 [Doramapimod] | 0 | 0 | 0 |
| CC(C)c1cc(C(=O)N2Cc3ccc(CN4CCN(C)CC4)cc3C2)c(O)cc1O [Onalespib] | 18.8 | 18.2 | 16.2 |
| Cc1cc2c(F)c(Oc3ncnn4cc(OC[C@@H](C)O)c(C)c34)ccc2[nH]1 [Brivanib] | 0 | 0 | 0 |
| CCC/C=C/C=C/C(=O)O[C@H]1/C(=C/C(=O)OC)C[C@H]2C[C@H]([C@@H](C)O)OC(=O)C[C@H](O)C[C@@H]3C[C@H](OC(C)=O)C(C)(C)[C@](O)(C[C@@H]4C/C(=C/C(=O)OC)C[C@H](/C=C/C(C)(C)[C@]1(O)O2)O4)O3 [Bryostatin 1] | 0 | 0 | 0 |
| CN1CC[C@@H](NC(=O)Nc2ccc(C#N)cc2)C[C@@H]1c1nc2ccccc2[nH]1 [Glasdegib] | 0 | 0 | 0 |
| CC1(C)CCC(c2ccc(Cl)cc2)=C(CN2CCN(c3ccc(C(=O)NS(=O)(=O)c4ccc(N[C@H](CCN5CCOCC5)CSc5ccccc5)c(S(=O)(=O)C(F)(F)F)c4)cc3)CC2)C1 [Navitoclax] | 0 | 0.9 | 0.8 |
| COC(=O)c1ccc2c(c1)NC(=O)/C2=C(\Nc1ccc(N(C)C(=O)CN2CCN(C)CC2)cc1)c1ccccc1 [Nintedanib] | 8.3 | 1.3 | 0.3 |
| C/C(=C\c1csc(C)n1)[C@@H]1C[C@@H]2O[C@]2(C)CCC[C@H](C)[C@H](O)[C@@H](C)C(=O)C(C)(C)[C@@H](O)CC(=O)N1 [Ixabepilone] | 5 | 5 | 5.4 |
| COc1cc2c(Nc3ccc(Cl)c(Cl)c3F)ncnc2cc1OC[C@@H]1C[C@@H]2CN(C)C[C@@H]2C1 [Tesevatinib] | 18.9 | 8.5 | 5.8 |
| CCS(=O)(=O)N1CC(CC#N)(n2cc(-c3ncnc4[nH]ccc34)cn2)C1 [Baricitinib] | 0 | 0 | 0 |

| SMILES | drug sensitivity score [1] | drug sensitivity score [2] | drug sensitivity score [3] |
| --- | --- | --- | --- |
| CCN1CCN(c2ccc(Nc3cc(N(C)C(=O)Nc4c(Cl)c(OC)cc(OC)c4Cl)ncn3)cc2)CC1 [Infigratinib] | 0 | 0 | 0 |
| COc1cc(C(=O)O)ccc1NC(=O)[C@@H]1N[C@@H](CC(C)(C)C)[C@](C#N)(c2ccc(Cl)cc2F)[C@H]1c1cccc(Cl)c1F [Idasanutlin] | 16.2 | 12.6 | 8.4 |
| Cn1cncc1[C@@](N)(c1ccc(Cl)cc1)c1ccc2c(c1)c(-c1cccc(Cl)c1)cc(=O)n2C [Tipifarnib] | 9.6 | 4.4 | 2.5 |
| COc1c(C)cnc(Cn2cnc3c(Cl)nc(N)nc32)c1C [BIIB021] | 20.6 | 19.6 | 17.4 |
| CNC(=O)[C@@H](NC(=O)[C@H](CC(C)C)[C@H](O)C(=O)NO)C(C)(C)C [Marimastat] | 3.5 | 0.1 | 0 |
| C=CCc1cccc(/C=N/NC(=O)CN2CCN(Cc3ccccc3)CC2)c1O [PAC-1] | 4 | 4.2 | 2.6 |
| C=CC(=O)Nc1cc(Nc2nccc(-c3cn(C)c4ccccc34)n2)c(OC)cc1N(C)CCN(C)C [Osimertinib] | 10.9 | 6.4 | 4.6 |
| CN1CCN(c2cc(C(=O)Nc3ccc4c(c3)-c3c(c(C(N)=O)nn3-c3ccc(F)cc3)CC4)c(Cl)cn2)CC1 [PHA 408] | 0.2 | 0 | 0 |
| Cc1nc2cccc(N)c2c(=O)n1C1CCC(=O)NC1=O (centres undefined) [CC122] | 0 | 0 | 0 |
| Cc1cccc(-c2[nH]c(CNc3ccccc3F)nc2-c2ccc3ncnn3c2)n1 [TEW-7197] | 4.3 | 0 | 1.1 |
| FC(F)(F)c1ccc(/C=C/c2nc(COc3ccc(CCCCn4ccnn4)cc3)co2)cc1 [Mubritinib] | 0 | 0 | 0 |
| c1cc(CN2CCCNCCNCCCNCC2)ccc1CN1CCCNCCNCCCNCC1 [Plerixafor] | 0.1 | 0 | 0 |
| COCCOc1cnc2ccn([C@H](C)c3nnc4c(F)cc(-c5cnn(C)c5)cn34)c(=O)c2c1 [AMG-337] | 0 | 0 | 0 |
| Nc1cc(F)ccc1NC(=O)/C=C/c1cnn(C/C=C/c2ccccc2)c1 [RGFP966] | 1 | 0 | 0 |
| CC(=O)O[C@H]1C(=O)[C@@]2(C)[C@H]([C@H](OC(=O)c3ccccc3)[C@]3(O)C[C@H](OC(=O)[C@H](O)[C@@H](NC(=O)c4ccccc4)c4ccccc4)C(C)=C1C3(C)C)[C@]1(OC(C)=O)CO[C@@H]1C[C@@H]2O [Paclitaxel] | 21.8 | 19.4 | 15.8 |
| Cc1ccc(NC(=O)c2ccc(CN3CCN(C)CC3)cc2)cc1Nc1nc(-c2cccnc2)cs1 [Masitinib] | 5.3 | 8.2 | 5.7 |

From the supplement of paper PMC11003180
